How the values were obtained:
Format in all cases: binding
[1] = molecular target: TEAD1 YAP50-100 (Homo sapiens, UniProt P28347); assay: TEAD1-YAP HTRF (TR-FRET) protein-protein interaction assay; conditions: TEAD1, YAP peptide 50-100, HTRF; for EC50: read-out: TEAD1 YAP50-100 HTRF combined: EC50
Summary of the method: (§1)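 His-tagged TEAD YAP-binding domain (aa 217-447) pre-bound to Eu anti-His antibody, then incubated 30 min with compound before adding biotinylated YAP (aa 50-100) or TAZ (aa 13-57) peptide with streptavidin-XL665. After 60 min at room temperature, TR-FRET 665/615 nm ratio read; IC50/EC50 from four-parameter fit.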

[2] = molecular target: TEAD2 YAP50-100 (Homo sapiens, UniProt Q15562); assay: TEAD2-YAP HTRF (TR-FRET) protein-protein interaction assay; conditions: TEAD2, YAP peptide 50-100, HTRF; for EC50: read-out: TEAD2 YAP50-100 HTRF combined: EC50
Summary of the method: as §1

[3] = molecular target: TEAD3 YAP50-100 (Homo sapiens, UniProt Q99594); assay: TEAD3-YAP HTRF (TR-FRET) protein-protein interaction assay; conditions: TEAD3, YAP peptide 50-100, HTRF; for EC50: read-out: TEAD3 YAP50-100 HTRF combined: EC50
Summary of the method: as §1

[4] = molecular target: TEAD4 YAP50-100 (Homo sapiens, UniProt Q15561); assay: TEAD4-YAP HTRF (TR-FRET) protein-protein interaction assay; conditions: TEAD4, YAP peptide 50-100, HTRF; for EC50: read-out: TEAD4 YAP50-100 HTRF combined: EC50
Summary of the method: as §1

[5] = molecular target: TEAD1 TAZ (amino acids 13-57) (Homo sapiens, UniProt P28347); assay: TEAD1-TAZ HTRF (TR-FRET) protein-protein interaction assay; conditions: for TEAD1 TAZ HTRF combined: Max % Inhibition: TEAD1, TAZ peptide; for EC50: TEAD1-TAZ HTRF, TR-FRET 665 nm/615 nm, read-out: TEAD1 TAZ HTRF combined: EC50
Summary of the method: as §1

[6] = molecular target: TEAD2 TAZ (amino acids 13-57) (Homo sapiens, UniProt Q15562); assay: TEAD2-TAZ HTRF (TR-FRET) protein-protein interaction assay; conditions: for TEAD2 TAZ HTRF combined: Max % Inhibition: TEAD2, TAZ peptide; for EC50: TEAD2-TAZ HTRF, TR-FRET 665 nm/615 nm, read-out: TEAD2 TAZ HTRF combined: EC50
Summary of the method: as §1

[7] = molecular target: TEAD3 TAZ (amino acids 13-57) (Homo sapiens, UniProt Q99594); assay: TEAD3-TAZ HTRF (TR-FRET) protein-protein interaction assay; conditions: for TEAD3 TAZ HTRF combined: Max % Inhibition: TEAD3, TAZ peptide; for EC50: TEAD3-TAZ HTRF, TR-FRET 665 nm/615 nm, read-out: TEAD3 TAZ HTRF combined: EC50
Summary of the method: as §1

[8] = molecular target: TEAD4 TAZ (amino acids 13-57) (Homo sapiens, UniProt Q15561); assay: TEAD4-TAZ HTRF (TR-FRET) protein-protein interaction assay; conditions: for TEAD4 TAZ HTRF combined: Max % Inhibition: TEAD4, TAZ peptide; for EC50: TEAD4-TAZ HTRF, TR-FRET 665 nm/615 nm, read-out: TEAD4 TAZ HTRF combined: EC50
Summary of the method: as §1

Chain of TEAD1 YAP50-100 (P28347 167-426 limits assumed): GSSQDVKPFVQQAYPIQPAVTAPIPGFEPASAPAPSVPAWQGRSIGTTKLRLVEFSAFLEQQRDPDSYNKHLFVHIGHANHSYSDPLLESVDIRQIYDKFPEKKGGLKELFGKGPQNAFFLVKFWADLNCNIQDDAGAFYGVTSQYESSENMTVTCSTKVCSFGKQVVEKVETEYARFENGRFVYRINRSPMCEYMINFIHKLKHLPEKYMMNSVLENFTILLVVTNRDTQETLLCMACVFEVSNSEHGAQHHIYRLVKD
Chain of TEAD1 TAZ (amino acids 13-57) (P28347 167-426 limits assumed): as above
Chain of TEAD3 YAP50-100 (Q99594 173-435 limits assumed): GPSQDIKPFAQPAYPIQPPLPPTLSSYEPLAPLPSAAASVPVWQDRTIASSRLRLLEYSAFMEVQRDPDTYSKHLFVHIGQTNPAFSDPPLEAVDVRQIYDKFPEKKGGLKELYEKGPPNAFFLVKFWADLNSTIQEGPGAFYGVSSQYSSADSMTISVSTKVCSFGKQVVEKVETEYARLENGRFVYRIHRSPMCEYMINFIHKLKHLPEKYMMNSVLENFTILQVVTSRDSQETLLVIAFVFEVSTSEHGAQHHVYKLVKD
Chain of TEAD3 TAZ (amino acids 13-57) (Q99594 173-435 limits assumed): as above
Chain of TEAD4 YAP50-100 (Q15561 217-434 limits assumed): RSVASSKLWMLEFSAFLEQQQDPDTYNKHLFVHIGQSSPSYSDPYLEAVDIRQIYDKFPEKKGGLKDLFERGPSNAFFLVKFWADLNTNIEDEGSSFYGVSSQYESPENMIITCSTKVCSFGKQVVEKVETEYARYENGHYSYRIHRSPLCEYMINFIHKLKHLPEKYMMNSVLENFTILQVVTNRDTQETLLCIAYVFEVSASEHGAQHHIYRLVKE
Chain of TEAD4 TAZ (amino acids 13-57) (Q15561 217-434 limits assumed): as above
Chain of TEAD2 YAP50-100 (Q15562 217-447): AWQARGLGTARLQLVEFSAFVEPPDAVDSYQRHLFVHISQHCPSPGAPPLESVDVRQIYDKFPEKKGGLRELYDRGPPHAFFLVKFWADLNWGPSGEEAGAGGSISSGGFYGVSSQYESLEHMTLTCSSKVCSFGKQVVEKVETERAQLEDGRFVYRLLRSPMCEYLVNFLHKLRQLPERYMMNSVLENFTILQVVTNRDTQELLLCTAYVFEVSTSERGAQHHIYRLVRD
Chain of TEAD2 TAZ (amino acids 13-57) (Q15562 217-447): as above

Row | SMILES | TEAD1 YAP50-100 HTRF combined: Max % Inhibition [1] [%] | EC50 [1] [nM] | TEAD2 YAP50-100 HTRF combined: Max % Inhibition [2] [%] | EC50 [2] [nM] | TEAD3 YAP50-100 HTRF combined: Max % Inhibition [3] [%] | EC50 [3] [nM] | TEAD4 YAP50-100 HTRF combined: Max % Inhibition [4] [%] | EC50 [4] [nM] | TEAD1 TAZ HTRF combined: Max % Inhibition [5] [%] | EC50 [5] [nM] | TEAD2 TAZ HTRF combined: Max % Inhibition [6] [%] | EC50 [6] [nM] | TEAD3 TAZ HTRF combined: Max % Inhibition [7] [%] | EC50 [7] [nM] | TEAD4 TAZ HTRF combined: Max % Inhibition [8] [%] | EC50 [8] [nM]
1 | Cc1nccnc1-c1nn2c(=O)cc(-c3ccc(OC(c4ccccc4)C(F)(F)F)cc3)[nH]c2c1C(=O)N1C[C@H](CF)[C@@H]1C (single isomer, unassigned) [Final product obtained using Enantiomer A from Step 1, Example 56] | 74.0 | 370 | 92.0 | 60 | 81.5 | 370 | 69.5 | 2700 | 63.0 | 320 | 89.0 | 60 | 74.5 | 430 | 67.0 | 2250
2 | O=C(c1c(-c2cnccn2)nn2c(=O)cc(-c3ccc(C4CCCCC4)cc3)[nH]c12)N1CC(CF)C1 [Compound 17, 5-(4-Cyclohexylphenyl)-3-(3-(fluoromethyl)azetidine-1-carbonyl)-2-(pyrazin-2-yl)pyrazolo[1,5-a]pyrimidin-7(4H)-one] | 69.0 | 30 | 61.6 | 10 | 63.3 | 60 | 42.0 | 40 | 60.6 | 40 | 60.9 | 10 | 53.9 | 60 | 34.9 | 30
3 | Cc1nccnc1-c1nn2c(=O)cc(-c3ccc(C4CCC(F)(F)CC4)cc3)[nH]c2c1C(=O)N1CC(CF)C1 [Compound 55, 5-(4-(4,4-Difluorocyclohexyl)phenyl)-3-(3-(fluoromethyl)azetidine-1-carbonyl)-2-(3-methylpyrazin-2-yl)pyrazolo[1,5-a]pyrimidin-7(4H)-one] | 72.0 | 260 | 56.5 | 60 | 62.0 | 200 | 44.5 | 140 | 67.0 | 240 | 60.0 | 50 | 55.0 | 210 | 39.5 | 110
4 | O=C(c1c(-c2ncco2)nn2c(=O)cc(-c3ccc(C4CCCCC4)cc3)[nH]c12)N1CC(CF)C1 [Compound 19, 5-(4-Cyclohexylphenyl)-3-(3-(fluoromethyl)azetidine-1-carbonyl)-2-(oxazol-2-yl)pyrazolo[1,5-a]pyrimidin-7(4H)-one] | 69.0 | 40 | 67.5 | 10 | 60.0 | 60 | 46.0 | 60 | 59.5 | 70 | 63.5 | 10 | 53.0 | 60 | 38.5 | 50
5 | COc1nccnc1-c1nn2c(=O)cc(-c3ccc(C4CCCCC4)cc3)[nH]c2c1C(=O)N1CC(CF)C1 [Compound 13, 5-(4-Cyclohexylphenyl)-3-(3-(fluoromethyl)azetidine-1-carbonyl)-2-(3-methoxypyrazin-2-yl)pyrazolo[1,5-a]pyrimidin-7(4H)-one] | 74.0 | 80 | 65.0 | 20 | 71.5 | 180 | 50.0 | 210 | 66.5 | 100 | 60.0 | 20 | 56.5 | 180 | 40.0 | 130
6 | C[C@H]1[C@@H](CF)CN1C(=O)c1c(-c2cnccn2)nn2c(=O)cc(-c3ccc(CC4CCCC4)cc3)[nH]c12 (single isomer, unassigned) [Isomer B, Example 44, Cis-5-(4-(cyclopentylmethyl)phenyl)-3-(3-(fluoromethyl)-2-methylazetidine-1-carbonyl)-2-(pyrazin-2-yl)pyrazolo[1,5-a]pyrimidin-7(4H)-one] | 69.0 | 30 | 70.0 | 10 | 61.5 | 50 | 50.5 | 20 | 59.5 | 40 | 67.5 | 10 | 56.0 | 50 | 52.0 | 20
7 | Cc1cncc(-c2nn3c(=O)cc(-c4ccc(C5CCCCC5)cc4)[nH]c3c2C(=O)N2CC(CF)C2)n1 [Compound 28, 5-(4-Cyclohexylphenyl)-3-(3-(fluoromethyl)azetidine-1-carbonyl)-2-(6-methylpyrazin-2-yl)pyrazolo[1,5-a]pyrimidin-7(4H)-one] | 76.0 | 40 | 59.5 | 20 | 68.0 | 100 | 43.5 | 130 | 74.0 | 60 | 66.5 | 10 | 63.0 | 100 | 41.0 | 120
8 | C[C@H]1[C@@H](CF)CN1C(=O)c1c(-c2ncccn2)nn2c(=O)cc(-c3ccc(CC4CCCC4)cc3)[nH]c12 (single isomer, unassigned) [Isomer A, Example 43] | 64.0 | 30 | 71.0 | 10 | 58.5 | 60 | 52.0 | 10 | 54.5 | 30 | 63.0 | 10 | 52.0 | 60 | 52.0 | 10
9 | CC(C)c1ccnc(-c2nn3c(=O)cc(-c4ccc(C5CCCCC5)cc4)[nH]c3c2C(=O)N2CC(CF)C2)n1 [Compound 10, 5-(4-Cyclohexylphenyl)-3-(3-(fluoromethyl)azetidine-1-carbonyl)-2-(4-isopropylpyrimidin-2-yl)pyrazolo[1,5-a]pyrimidin-7(4H)-one] | 77.0 | 60 | 67.0 | 10 | 70.5 | 120 | 60.5 | 670 | 72.0 | 60 | 65.0 | 10 | 61.5 | 140 | 62.0 | 540
